Data taken from US20240158446A1, “CYCLIC COMPOUND HAVING SELECTIVE INHIBITORY ACTION ON KRAS OVER HRAS AND NRAS” (CHUGAI SEIYAKU KABUSHIKI KAISHA, priority 2021, published 2024).
pIC50, pKd: −log10 of the molar value. Where two headings read alike, the source gives them in different places.

Experiments:
[1] = molecular target: GDP-bound KRAS wild-type protein (Homo sapiens, UniProt P01116); experiment: Binding to KRAS by surface plasmon resonance (SPR), Single Cycle Kinetics
[2] = molecular target: GDP-bound NRAS wild-type protein (Homo sapiens, UniProt P01111); experiment: Binding to NRAS by surface plasmon resonance (SPR), Single Cycle Kinetics; conditions: for NRAS/KRAS (ratio of KD value with respect to GDP-bound NRAS wild-type protein to KD value with respect to KRAS): SPR KD ratio NRAS/KRAS, class symbols; for NRAS/KRAS (ratio of KD value for NRAS to KD value for KRAS) / ratio of the KD value with respect to GDP-bound NRAS wild-type protein to the KD value with respect to KRAS: SPR; for NRAS/KRAS (ratio of KD value for NRAS to KD value for KRAS): GDP-bound NRAS wild-type protein vs GDP-bound KRAS wild-type protein
Sequence of GDP-bound NRAS wild-type protein (P01111 whole entry): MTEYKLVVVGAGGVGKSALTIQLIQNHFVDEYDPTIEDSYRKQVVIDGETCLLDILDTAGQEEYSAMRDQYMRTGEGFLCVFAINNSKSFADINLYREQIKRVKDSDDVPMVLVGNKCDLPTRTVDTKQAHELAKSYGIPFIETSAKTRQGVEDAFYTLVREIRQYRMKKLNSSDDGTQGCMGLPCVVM

[3] = molecular target: GDP-bound HRAS wild-type protein (Homo sapiens, UniProt P01112); experiment: Binding to HRAS by surface plasmon resonance (SPR), Single Cycle Kinetics; conditions: for HRAS/KRAS (ratio of KD value with respect to GDP-bound HRAS wild-type protein to KD value with respect to KRAS): SPR KD ratio HRAS/KRAS, class symbols; for HRAS/KRAS (ratio of KD value for HRAS to KD value for KRAS) / ratio of the KD value with respect to GDP-bound HRAS wild-type protein to the KD value with respect to KRAS: SPR; for HRAS/KRAS (ratio of KD value for HRAS to KD value for KRAS): GDP-bound HRAS wild-type protein vs GDP-bound KRAS wild-type protein
Sequence of GDP-bound HRAS wild-type protein (P01112 whole entry): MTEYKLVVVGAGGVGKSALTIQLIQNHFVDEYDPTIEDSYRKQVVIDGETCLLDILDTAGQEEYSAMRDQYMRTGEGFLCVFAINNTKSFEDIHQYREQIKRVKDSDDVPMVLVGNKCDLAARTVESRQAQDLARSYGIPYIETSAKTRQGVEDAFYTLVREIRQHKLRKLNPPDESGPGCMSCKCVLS

[4] = test system: human lung cancer strain NCI-H441;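 also: cell proliferation inhibition after four days measured by CellTiter-Glo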
[5] = SPR Single Cycle Kinetics, GDP-bound KRAS wild-type protein, 1:1 binding model, read-out: KRAS KD
[6] = SPR, Single Cycle Kinetics, 1:1 binding model, read-out: KD value with respect to GDP-bound KRAS wild-type protein
[7] = SPR, Single Cycle Kinetics, GDP-bound KRAS wild-type protein, read-out: KRAS KD
[8] = read-out: NCI-H441 cell proliferation inhibitory activity, 50% proliferation inhibitory concentration (IC50 value), NCI-H441, four days, CellTiter-Glo

Sequence of GDP-bound KRAS wild-type protein (P01116 whole entry): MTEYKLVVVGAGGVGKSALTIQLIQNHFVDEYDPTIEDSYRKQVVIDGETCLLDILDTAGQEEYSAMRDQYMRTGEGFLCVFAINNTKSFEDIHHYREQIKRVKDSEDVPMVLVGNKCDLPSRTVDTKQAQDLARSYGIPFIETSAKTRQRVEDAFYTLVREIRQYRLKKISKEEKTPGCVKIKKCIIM

Compound | pKd [1, 5] | NRAS/KRAS (ratio of KD value with respect to GDP-bound NRAS wild-type protein to KD value with respect to KRAS) [2] | HRAS/KRAS (ratio of KD value with respect to GDP-bound HRAS wild-type protein to KD value with respect to KRAS) [3] | pIC50 [4] | pKd [1, 6] | pKd [1, 7] | NRAS/KRAS (ratio of KD value for NRAS to KD value for KRAS) [2] | ratio of the KD value with respect to GDP-bound NRAS wild-type protein to the KD value with respect to KRAS [2] | HRAS/KRAS (ratio of KD value for HRAS to KD value for KRAS) [3] | ratio of the KD value with respect to GDP-bound HRAS wild-type protein to the KD value with respect to KRAS [3] | pIC50 [4, 8]
CCC(CC)[C@H]1C(=O)N(C)[C@H](C(=O)N(C)C)CC(=O)N(C)[C@@H](COC)C(=O)N[C@@H]([C@@H](C)CC)C(=O)N(C2CC2)CC(=O)N(C)[C@H]2C/C=C\CCN(C2=O)[C@@H](CC2CCC(F)(F)CC2)C(=O)N(C)CC(=O)N[C@@H](CCc2cc(F)c(C(F)(F)F)c(F)c2)C(=O)N2C[C@H](OC3CCCC3)C[C@H]2C(=O)NC2(CC(C)(C)C2)C(=O)N1C [PP2627] | 8.59 | A (a compound having 10 or more and less than 20 is denoted as A) | A (a compound having 10 or more and less than 20 is denoted as A) | 7.02 | – | – | – | – | – | – | –
CCC[C@H]1C(=O)N[C@@H]([C@@H](C)CC)C(=O)N(C2CC2)CC(=O)N(C)[C@H]2C/C=C\CCN(C2=O)[C@@H](Cc2ccc(C)cc2)C(=O)N(C)CC(=O)N[C@@H](CCc2ccc(C(F)(F)F)c(OC)c2)C(=O)N2C[C@H](OCC)C[C@H]2C(=O)N(C)C2(CCC2)C(=O)N(C)[C@@H](C2CCCC2)C(=O)N(C)[C@H](C(=O)N2CCCC2)CC(=O)N1C [PP3098, (2S,8S,12R,14S,20S,23S,27S,30S,36S,38Z)-20-cyclopentyl-32-cyclopropyl-12-ethoxy-8-[2-[3-methoxy-4-(trifluoromethyl)phenyl]ethyl]-4,16,19,22,26,35-hexamethyl-30-[(1S)-1-methylpropyl]-27-propyl-2-(p-tolylmethyl)-23-(pyrrolidine-1-carbonyl)spiro[1,4,7,10,16,19,22,26,29,32,35-undecazatricyclo[34.5.1.0^10,14]dotetracont-38-ene-17,1′-cyclobutane]-3,6,9,15,18,21,25,28,31,34,42-undecone] | – | – | – | – | 9.62 | 9.62 | A (a compound having 10 or more and less than 20 is denoted as A) | A (a compound having 10 or more and less than 20 is denoted as A) | A (a compound having 10 or more and less than 20 is denoted as A) | A (a compound having 10 or more and less than 20 is denoted as A) | 8.33
CCOC[C@H]1C(=O)N[C@@H]([C@@H](C)CC)C(=O)N(C)CC(=O)N(C)[C@H]2C/C=C\CCN(C2=O)[C@@H](Cc2ccc(C)cc2)C(=O)N(C)CC(=O)N[C@@H](CCc2ccc(C(F)(F)F)c(Cl)c2)C(=O)N2C[C@@H](C)C[C@H]2C(=O)NC2(CC(C)(C)C2)C(=O)N(C)[C@@H](C2CCCC2)C(=O)N(C)[C@H](C(=O)N(CC)CC)CC(=O)N1C [PP2465] | – | – | – | 7.40 | – | 9.29 | AA (a compound having 20 or more is denoted as AA) | – | A (a compound having 10 or more and less than 20 is denoted as A) | – | –
CC[C@H](C)[C@@H]1NC(=O)[C@H](CC)N(C)C(=O)C[C@@H](C(=O)N(C)C)N(C)C(=O)[C@H](C2CCCC2)N(C)C(=O)C2(CCC2)NC(=O)[C@H](COCCC(C)C)N(C)C(=O)[C@H](CCc2cc(F)c(C(F)(F)F)c(F)c2)NC(=O)CN(C)C(=O)[C@H](Cc2ccc(C(F)(F)F)cc2)N2CC/C=C\C[C@@H](C2=O)N(C)C(=O)CN(C)C1=O [PP1148] | – | – | – | 6.45 | – | 8.92 | A (a compound having 10 or more and less than 20 is denoted as A) | – | A (a compound having 10 or more and less than 20 is denoted as A) | – | –
CC[C@H](C)[C@@H]1NC(=O)[C@H](CC(C)C)N(C)C(=O)CSC[C@H](C(=O)N(C)C)N(C)C(=O)[C@H](C2CCCC2)N(C)C(=O)C2(CCCC2)NC(=O)[C@@H]2CCCN2C(=O)[C@@H](CCc2cc(F)c(C(F)(F)F)c(F)c2)NC(=O)CN(C)C(=O)[C@H](Cc2ccc(C(F)(F)F)cc2)N2CC=CC[C@@H](C2=O)N(C)C(=O)CN(C)C1=O [PP3108] | – | – | – | – | 6.06 | 6.06 | C (A compound having a KD ratio of 0.1 or more and less than 3 is denoted as C) | C (A compound having a KD ratio of 0.1 or more and less than 3 is denoted as C) | B (a compound having 3 or more and less than 10 is denoted as B) | B (a compound having 3 or more and less than 10 is denoted as B) | 5.03
CCOC[C@H]1C(=O)N[C@@H]([C@@H](C)CC)C(=O)N2CCC[C@H]2C(=O)N(C)[C@H]2C/C=C\CCN(C2=O)[C@@H](CC2CCC(F)(F)CC2)C(=O)N(C)CC(=O)N[C@@H](CCc2ccc(C(F)(F)F)c(OC)c2)C(=O)N2C[C@H](OCC)C[C@H]2C(=O)N(C)C2(CCC2)C(=O)N(C)[C@@H](C(CC)CC)C(=O)N(C)[C@H](C(=O)N(C)C)CC(=O)N1C [PP2355] | – | – | – | 6.99 | – | 8.41 | AA (a compound having 20 or more is denoted as AA) | – | A (a compound having 10 or more and less than 20 is denoted as A) | – | –
CCC(CC)[C@H]1C(=O)N(C)[C@H](C(=O)N(C)C)CC(=O)N(C)[C@@H](COC)C(=O)N[C@@H]([C@@H](C)CC)C(=O)N(C)CC(=O)N(C)[C@H]2C/C=C\CCN(C2=O)[C@@H](CC2CCC(F)(F)CC2)C(=O)N(C)CC(=O)N[C@@H](CCc2ccc(C(F)(F)F)c(OC)c2)C(=O)N2C[C@@H](C)C[C@H]2C(=O)NC2(CC(C)(C)C2)C(=O)N1C [PP2442] | – | – | – | 7.10 | – | 9.01 | A (a compound having 10 or more and less than 20 is denoted as A) | – | A (a compound having 10 or more and less than 20 is denoted as A) | – | –
CCC[C@H]1C(=O)N[C@@H]([C@@H](C)CC)C(=O)N(C)CC(=O)N(C)[C@H]2C/C=C\CCN(C2=O)[C@@H](Cc2ccc(C(F)(F)F)cc2)C(=O)N(C)CC(=O)N[C@@H](CCc2ccc(Cl)c(Cl)c2)C(=O)N2C[C@H](OCC)C[C@H]2C(=O)NC2(CC(C)(C)C2)C(=O)N(C)[C@@H](CC(C)(C)C)C(=O)N(C)[C@H](C(=O)N(C)C)CC(=O)N1C [PP2738] | 9.77 | AA (a compound having 20 or more is denoted as AA) | A (a compound having 10 or more and less than 20 is denoted as A) | 8.07 | – | – | – | – | – | – | –
CCC[C@H]1C(=O)N[C@@H]([C@@H](C)CC)C(=O)N(C2CC2)CC(=O)N(C)[C@H]2C/C=C\CCN(C2=O)[C@@H](Cc2ccc(C)cc2)C(=O)N(C)CC(=O)N[C@@H](CCc2ccc(C(F)(F)F)c(OC)c2)C(=O)N2C[C@@H](C)C[C@H]2C(=O)N(C)C2(CCC2)C(=O)N(C)[C@@H](C2CCCC2)C(=O)N(C)[C@H](C(=O)N(C)C)CC(=O)N1C [PP2366] | – | – | – | 8.35 | – | 10.32 | A (a compound having 10 or more and less than 20 is denoted as A) | – | A (a compound having 10 or more and less than 20 is denoted as A) | – | –
CCO[C@@H]1C[C@H]2C(=O)NC3(CCC3)C(=O)N(C)[C@@H](C3CCCC3)C(=O)N(C)[C@H](C(=O)N(C)C)CC(=O)N(C)[C@@H](Cc3ccc(C#N)cc3)C(=O)N[C@@H]([C@@H](C)CC)C(=O)N(C)CC(=O)N(C)[C@H]3CCCCCN(C3=O)[C@@H](Cc3ccc(C(F)(F)F)cc3)C(=O)N(C)CC(=O)N[C@@H](CCc3cc(F)c(C(F)(F)F)c(F)c3)C(=O)N2C1 [PP1173] | – | – | – | 7.15 | – | 9.74 | B (a compound having 3 or more and less than 10 is denoted as B) | – | B (a compound having 3 or more and less than 10 is denoted as B) | – | –
CCO[C@@H]1C[C@H]2C(=O)NC3(CCC3)C(=O)N(C)[C@@H](C3CCCC3)C(=O)N(C)[C@H](C(=O)N3CCOCC3)CC(=O)N(C)[C@@H](Cc3ccsc3)C(=O)N[C@@H]([C@@H](C)CC)C(=O)N(C)CC(=O)N(C)[C@H]3CCCCCN(C3=O)[C@@H](Cc3ccc(F)cc3)C(=O)N(C)CC(=O)N[C@@H](CCc3cc(F)c(C(F)(F)F)c(F)c3)C(=O)N2C1 [PP1184] | – | – | – | 7.04 | – | 9.80 | B (a compound having 3 or more and less than 10 is denoted as B) | – | B (a compound having 3 or more and less than 10 is denoted as B) | – | –
